Entries after “also recorded” stand apart in the source; their conditions may differ.
Tests used:
Eschericha coli (NM1) = experiment: MDAB staining of bacterial colonies with indicators I9a, I10a, I11a, I12a on Nutrient Agar, aerobic; type: cell-based; settings: for colonial morphology, aerobic conditions: Escherichia coli (b-gal +), aR MDAB, equivalents 1:1, after 48 h of incubation; for Effectiveness of indicator system with MDAB under aerobic conditions: in combination with MDAB
Method: (§1) Indicators were tested with live cultures on Nutrient Agar plates. Nutrient Agar (5 g/l peptone, 5 g/l NaCl, 2 g/l yeast extract, 1 g/l beef extract, 13 g/l agar, pH 7.4) was autoclaved and allowed to cool to 50° C. Then substrates were added to final concentrations of 150 mg/l (from a 20 mg/ml stock solution in DMF). Optionally MDAB was added to a concentration of 1 mM (from a 200 mM stock solution in DMF) and plates were poured. Agar plates were inoculated with cultures of Eschericha coli (NM1) or Salmonella enteritidis (RKI 05/07992) (pre-grown on nutrient broth for 8-18 hours) and aerobically incubated at 37° C.

[1] = system: Salmonella enteritidis (RKI 05/07992); experiment: as above; type: cell-based; settings: Salmonella enteritidis (b-gal −); aR MDAB, equivalents 1:1; after 48 h of incubation
Method: as §1

[2] = system: beta-galactosidase positive Eschericha coli (NM1); experiment: IO staining of bacterial colonies on Nutrient Agar (color, fluorescence, localization, growth); for C: Color of colonies (strength): key: −: absent; +/−: weak; +: strong; ++: very strong; for F: Fluorescence of colonies (strength): key: −: absent; +/−: weak; +: strong; ++: very strong; for G: Growth of colonies: key: −: absent; +/−: weak; +: strong; ++: very strong; for L: Localization of stain on colonies: key: −: absent; +/−: weak; +: strong; ++: very strong; type: cell-based, E. coli; settings: 150 mg/l substrate and 100 mg/l IPTG; for F: Fluorescence of colonies (colour) / G: Growth of colonies / L: Localization of stain on colonies / F: Fluorescence of colonies (strength): 24 h; for F: Fluorescence of colonies (colour) / F: Fluorescence of colonies (strength): 366 nm UV; for C: Color of colonies (colour of stain) / C: Color of colonies (strength): 24 h on Nutrient Agar; for G: Growth of colonies / L: Localization of stain on colonies / F: Fluorescence of colonies (strength) / C: Color of colonies (strength): E. coli
Method: (§2) Nutrient Agar (5 g/l peptone, 5 g/l NaCl, 2 g/l yeast extract, 1 g/l beef extract, 13 g/l agar, pH 7.4) was autoclaved and allowed to cool to 50° C. Then indicators were added to final concentrations of 150 mg/l (from a 20 mg/ml stock solution in DMF).
(§3) Optionally IPTG was added to 100 mg/l (from a 100 mg/ml stock solution in H2O) and plates were poured. Agar plates were inoculated with cultures of beta-galactosidase positive Eschericha coli (NM1) or beta-galactosidase negative Salmonella enteritidis (RKI 05/07992) (pre-grown on nutrient broth for 8-18 hours) and incubated at 37° C. Plates were inspected at 16, 20, 24 and 48 hours and pictures were recorded at 18, 24, and 48 hours with a Digistore 2 Image documentation system (CAMAG) under white light.
(§4) A considerable number of indicators molecules (Table IVa, IVb) and a selection of labile groups (Table IVc) were tested with various microbial species producing different biomarker enzymes (external stimuli, eS). The color of stains ranges from yellow to red.
(§5) Plating media from Example 10 were examined under 366 nm UV irradiation at 16, 20, 24 and 48 hours for fluorescence by means of Digistore 2 Image documentation system (CAMAG). Loops of bacterial cells, grown for 48 hours on Nutrient Agar plates containing 150 mg/l beta-D-galactosidase indicator and 100 mg/l IPTG, were directly streaked into wells of black clear bottom microtiter plates. Fluorescence scans were recorded on a Spectramax M5 (Molecular Devices).

[3] = system: beta-galactosidase negative Salmonella enteritidis (RKI 05/07992); type: cell-based; settings: S. enteritidis (b-gal negative), 24 h, 150 mg/l substrate and 100 mg/l IPTG; for F: Fluorescence of colonies (strength): 366 nm UV; for all read-outs here: key: −: absent; +/−: weak; +: strong; ++: very strong
Method: as §2, §3, §4, §5

[4] = Water solubility and fluorescence of IO dyes from ester indicators; type: physicochemical; settings: above pH 5
From the text: Upon further acidification said dyes formed orange colored non-fluorescent precipitates from aqueous solutions. […] Evidently, said dyes are highly acidic in nature and highly fluorescent in deprotonated form.

[5] = Indication of disulfide reduction by TCEP
Candida albicans = experiment: IO staining of fungal colonies; type: cell-based; for growth: key: −: absent; +/−: weak/variable; +: strong
Method: (§6) Agar base (6 g/l soytone, 1.5 g/l yeast extract, 1 g/l glucose, 10 mM sodium phosphate buffer, 13 g/l agar, pH 7.0) was autoclaved and allowed to cool to 50° C. Then 1 mM MnSO4, 1 g/l N-Acetyl-D-galactosamine and: 1-(2-benzoylphenyl)-6-chloro-1H-indol-3-yl-N-acetyl-beta-D-galactosaminide (I21g) were added to final concentrations of 0.64 mM (from a 50 mM stock solution in DMF) and plates poured. Plates were inoculated with Candida albicans, Candida krusei and Saccharomyces cerevisiae and incubated at 37° C. for 48 hours.

Candida krusei = experiment: IO staining of fungal colonies; type: cell-based; settings: Candida krusei strain 305, galactosamidase −; agar plates containing indicator; for growth: key: −: absent; +/−: weak/variable; +: strong
Method: as §6

Saccharomyces cerevisiae = experiment: IO staining of fungal colonies; type: cell-based; settings: Saccharomyces cerevisiae strain 306, galactosamidase −; agar plates containing indicator; for growth: key: −: absent; +/−: weak/variable; +: strong
Method: as §6

[6] = Reaction of MDAB with active signalogens (aldol donor properties); settings: for Aldol product / color formed with MDAB: presence of MDAB, absence of oxygen
pig liver esterase = experiment: Indication of carbamate hydrolysis by esterase; type: biochemical; settings: prolonged exposure to pig liver esterase
[7] = Indication of carbamate hydrolysis by alkali; settings: short treatment with 1N aqueous NaOH solution
[8] = Candida albicans strain 304, galactosamidase +, agar plates containing indicator

SMILES | Effectiveness of indicator system with MDAB under aerobic conditions (Eschericha coli (NM1)) | colonial morphology, aerobic conditions [1] | F: Fluorescence of colonies (colour) [2] | C: Color of colonies (colour of stain) [2] | G: Growth of colonies [2] | L: Localization of stain on colonies [2] | F: Fluorescence of colonies (strength) [2] | C: Color of colonies (strength) [2] | C: Color of colonies (strength) [3] | F: Fluorescence of colonies (strength) [3] | further results
OC[C@H]1O[C@@H](Oc2cn(-c3ccccc3)c3cc(Cl)ccc23)[C@H](O)[C@@H](O)[C@H]1O [Indicator I9a, 6-Chloro-1-phenyl-1H-indol-3-yl-beta-D-galactopyranoside] | effective | Cream colored colonies |  |  |  |  |  |  |  |  | colonial morphology, aerobic conditions (Eschericha coli (NM1)): Red colored colonies
COC(=O)c1ccccc1-n1cc(O[C@@H]2O[C@H](CO)[C@H](O)[C@H](O)[C@H]2O)c2c(Cl)c(Br)ccc21 [Indicator I12a, 5-Bromo-4-chloro-1-[2-(methoxycarbonyl)phenyl]-1H-indol-3-yl-beta-D-galactopyranoside] | effective | Cream colored colonies | green | yellow-green | + | − | +/− | +/− | − | − | colonial morphology, aerobic conditions (Eschericha coli (NM1)): Brown colored colonies
O=C1c2ccccc2-n2c1c(O)c1ccccc12 [IO10, 11-Hydroxy-10H-indolo[1,2-a]indol-10-one] |  |  |  |  |  |  |  |  |  |  | Solubility in water [4]: freely soluble; also recorded: readily water-soluble
CC(=O)c1ccccc1-n1cc(SSc2cn(-c3ccccc3C(C)=O)c3ccccc23)c2ccccc21 [Indicator I33, Bis[1-(2-acetylphenyl)-1H-indol-3-yl]-disulfane] |  |  |  |  |  |  |  |  |  |  | Signal on disulfide reduction, alkaline conditions ([5]; alkaline conditions (1 N aqueous sodium hydroxide)): the solution turned yellow; Signal on disulfide reduction, neutral conditions ([5]; neutral conditions): no detectable signal
CC(=O)N[C@H]1[C@H](Oc2cn(-c3ccccc3C(=O)c3ccccc3)c3cc(Cl)ccc23)O[C@H](CO)[C@H](O)[C@@H]1O [Indicator I21g, 1-(2-Benzoylphenyl)-6-chloro-1H-indol-3-yl-N-acetyl-beta-D-galactosaminide] |  |  |  |  |  |  |  |  |  |  | Color (Candida albicans; [8]): Yellow; Growth (Candida albicans; [8]): +/−; Color of fungal colonies producing matching external stimulus (Candida albicans; D-galactosamidase biomarker of Candida albicans): bright yellow; Color (Candida krusei): Cream; Growth (Candida krusei): +/−; Color (Saccharomyces cerevisiae): Cream; Growth (Saccharomyces cerevisiae): +/−
Nc1c[nH]c2ccccc12 [aS6, 1H-Indol-3-amine] |  |  |  |  |  |  |  |  |  |  | Aldol product / color formed with MDAB [6]: Formation of the expected hetero aldol product was not observed; Aldol product / color formed with MDAB ([6]; listed as 3-aminoindole): failed to yield any aldol product
CCNC(=O)Oc1cn(-c2ccccc2C(=O)c2ccccc2)c2ccccc12 [Indicator I32, 1-(2-Benzoylphenyl)-1H-indol-3-yl ethyl carbamate] |  |  |  |  |  |  |  |  |  |  | Signal on carbamate hydrolysis by esterase (pig liver esterase): yellow precipitate; Signal on alkaline carbamate hydrolysis [7]: yellow precipitate
COC(=O)c1ccccc1-n1cc(O[C@@H]2O[C@H](CO)[C@H](O)[C@H](O)[C@H]2O)c2ccccc21 [Indicator I10a, 1-[2-(Methoxycarbonyl)phenyl]-1H-indol-3-yl-beta-D-galactopyranoside] | effective | Cream colored colonies | green | yellow-green | + | − | + | + | − | − | 
Oc1c[nH]c2ccc(Br)c(Cl)c12 [aS4, 5-Bromo-4-chloro-1H-indol-3-ol] |  |  |  |  |  |  |  |  |  |  | Efficiency as aldol donor with MDAB ([6]; compared with 6-chloro-1H-indol-3-ol (aS3)): far more effective
COC(=O)c1ccccc1-n1cc(O[C@@H]2O[C@H](CO)[C@H](O)[C@H](O)[C@H]2O)c2ccc(Cl)cc21 [Indicator I11a, 6-Chloro-1-[2-(methoxycarbonyl)phenyl]-1H-indol-3-yl-beta-D-galactopyranoside] | effective | Cream colored colonies | green | yellow-green | + | − | + | + | − | − | 

— patent publication US8940909B2, “Indicator platform” (Biosynth AG, priority 2009, dated 2015)
